These results are taken from ChEMBL document CHEMBL1143364, “Preliminary evaluation of pharmacological properties of some xanthone derivatives” (Bioorg Med Chem, 2009).

The term Ki denotes the dissociation constant of the complex between target and ligand, obtained from inhibition or displacement.

Active and inactive are the calls of the source. The rule behind the calls is not given here.

Series [1] relates to Mus musculus. Nature of the series: Neurotoxicity in CF1 mouse at 30 mg/kg, ip after 4 hrs by rotarod test. In kind it is toxicity, organism-based. The arrangement: dose 30 mg/kg, route intraperitoneal. The note with it: in vivo. On the technique in general: Falling from the rotarod earlier than controls is read as motor impairment.
Series [2] has as its system Mus musculus. Put plainly: Anticonvulsant activity in CF1 mouse assessed as inhibition of maximal electroshock-induced seizures at 100 mg/kg, ip after 4 hrs. Type of series: functional, organism-based. The arrangement: dose 100 mg/kg. (The maximal electroshock test induces tonic seizures with an electrical stimulus.)
The subject of series [3] is Mus musculus. Nature of the series: Anticonvulsant activity in CF1 mouse assessed as inhibition of maximal electroshock-induced seizures at 30 mg/kg, ip after 0.5 hrs. In kind it is functional, organism-based. More on the design: dose 30 mg/kg.
Series [4] addresses Beta-1 adrenergic receptor (Rattus norvegicus, UniProt P18090). Put plainly: biochemical.
Description: Displacement of [3H]CGP12177 from beta-1 adrenergic receptor in rat cerebral cortex by liquid scintillation counting
Series [5] has as its target T1, Adrenergic receptor alpha-1 (Rattus norvegicus, UniProt P15823+P23944+P43140).
T1 sequence (P15823 whole entry): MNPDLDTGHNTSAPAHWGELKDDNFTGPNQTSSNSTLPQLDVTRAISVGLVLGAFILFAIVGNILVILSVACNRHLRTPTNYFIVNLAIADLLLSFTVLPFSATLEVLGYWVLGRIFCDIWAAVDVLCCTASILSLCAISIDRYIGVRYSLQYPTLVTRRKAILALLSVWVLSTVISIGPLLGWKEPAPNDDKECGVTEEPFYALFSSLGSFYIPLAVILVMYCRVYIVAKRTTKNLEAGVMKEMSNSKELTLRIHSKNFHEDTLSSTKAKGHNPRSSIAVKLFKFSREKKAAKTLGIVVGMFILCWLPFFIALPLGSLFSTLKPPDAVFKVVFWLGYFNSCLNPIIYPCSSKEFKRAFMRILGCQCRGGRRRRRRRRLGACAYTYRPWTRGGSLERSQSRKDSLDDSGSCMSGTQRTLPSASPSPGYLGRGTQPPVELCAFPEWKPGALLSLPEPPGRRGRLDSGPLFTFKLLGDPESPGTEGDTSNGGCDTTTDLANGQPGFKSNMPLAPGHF
T1 sequence (P23944 whole entry): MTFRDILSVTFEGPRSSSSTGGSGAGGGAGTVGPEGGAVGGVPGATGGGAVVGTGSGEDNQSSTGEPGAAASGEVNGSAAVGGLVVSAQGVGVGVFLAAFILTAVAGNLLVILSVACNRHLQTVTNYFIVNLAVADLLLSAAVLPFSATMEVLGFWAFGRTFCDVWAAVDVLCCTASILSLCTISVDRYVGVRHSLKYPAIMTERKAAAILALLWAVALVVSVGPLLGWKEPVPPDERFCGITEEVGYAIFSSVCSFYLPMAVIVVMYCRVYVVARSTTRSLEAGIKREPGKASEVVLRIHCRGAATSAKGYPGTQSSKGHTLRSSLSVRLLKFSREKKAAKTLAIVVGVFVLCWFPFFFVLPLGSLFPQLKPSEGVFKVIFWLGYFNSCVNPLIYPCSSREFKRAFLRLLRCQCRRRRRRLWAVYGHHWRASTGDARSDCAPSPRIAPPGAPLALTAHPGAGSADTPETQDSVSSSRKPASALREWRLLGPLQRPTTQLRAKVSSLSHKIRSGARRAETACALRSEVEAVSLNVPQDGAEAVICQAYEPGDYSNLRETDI
T1 sequence (P43140 whole entry): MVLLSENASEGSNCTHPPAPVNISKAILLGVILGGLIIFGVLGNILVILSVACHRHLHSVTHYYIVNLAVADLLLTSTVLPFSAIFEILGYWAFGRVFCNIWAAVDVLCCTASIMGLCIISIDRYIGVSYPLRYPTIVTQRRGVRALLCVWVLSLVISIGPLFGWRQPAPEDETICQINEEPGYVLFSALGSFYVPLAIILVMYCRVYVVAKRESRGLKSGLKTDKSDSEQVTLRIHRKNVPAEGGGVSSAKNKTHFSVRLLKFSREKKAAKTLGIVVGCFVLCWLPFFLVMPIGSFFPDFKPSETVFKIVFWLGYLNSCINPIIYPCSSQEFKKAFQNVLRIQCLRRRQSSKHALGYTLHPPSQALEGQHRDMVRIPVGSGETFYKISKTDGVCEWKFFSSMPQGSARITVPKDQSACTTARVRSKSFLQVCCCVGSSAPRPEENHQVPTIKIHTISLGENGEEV
Nature of the series: Displacement of [3H]prazosin from alpha1 adrenergic receptor in rat cerebral cortex by liquid scintillation counting. In kind it is tissue-based.

Series [6] relates to Mus musculus. Nature of the series: Neurotoxicity in CF1 mouse at 100 mg/kg, ip after 4 hrs by rotarod test. Type of series: toxicity, organism-based. The arrangement: dose 100 mg/kg, route intraperitoneal. The note with it: in vivo.
Series [7] relates to Mus musculus. Nature of the series: Anticonvulsant activity in CF1 mouse assessed as inhibition of subcutaneous pentylenetetrazole-induced seizures. In kind it is functional, organism-based.
Series [8] relates to Rattus norvegicus. Put plainly: Antiarrhythmic activity in anaesthetized iv dosed Wistar rat assessed as decrease in adrenaline-induced cardiac rhythm disturbance administered 15 mins before adrenaline challenge. In kind it is functional. The note with it: Heart.
Series [9] has as its system Mus musculus. Nature of the series: Neurotoxicity in CF1 mouse at 30 mg/kg, ip after 0.5 hrs by rotarod test. More on the design: dose 30 mg/kg, route intraperitoneal. To be noted: in vivo. Type of series: toxicity, organism-based.
Series [10] deals with Mus musculus. Nature of the series: Neurotoxicity in CF1 mouse at 100 mg/kg, ip after 0.5 hrs by rotarod test. More on the design: dose 100 mg/kg, route intraperitoneal. The note with it: in vivo. Type of series: toxicity, organism-based.
Series [11] relates to Mus musculus. Nature of the series: Neurotoxicity in CF1 mouse at 300 mg/kg, ip after 0.5 hrs by rotarod test. Type of series: toxicity, organism-based. More on the design: dose 300 mg/kg, route intraperitoneal. To be noted: in vivo.
Series [12] deals with Mus musculus. Put plainly: Anticonvulsant activity in CF1 mouse assessed as inhibition of maximal electroshock-induced seizures at 300 mg/kg, ip after 0.5 hrs. Type of series: functional, organism-based. The arrangement: dose 300 mg/kg.
Series [13] has as its system Mus musculus. Nature of the series: Anticonvulsant activity in CF1 mouse assessed as inhibition of maximal electroshock-induced seizures at 300 mg/kg, ip after 4 hrs. The arrangement: dose 300 mg/kg. Type of series: functional, organism-based.
In series [14] the test system is Mus musculus. Put plainly: Anticonvulsant activity in CF1 mouse assessed as inhibition of maximal electroshock-induced seizures at 30 mg/kg, ip after 4 hrs. Type of series: functional, organism-based. More on the design: dose 30 mg/kg.
The test system of series [15] is Rattus norvegicus. Put plainly: Hypotensive activity in normotensive Wistar rat assessed as reduction in diastolic blood pressure at 10 mg/kg, iv. More on the design: scale not given: the % may be the effect or the level left. In kind it is functional, Artery.
The subject of series [16] is Rattus norvegicus. Nature of the series: Hypotensive activity in normotensive Wistar rat assessed as reduction in systolic blood pressure at 10 mg/kg, iv. The arrangement: scale not given: the % may be the effect or the level left. In kind it is functional.
In series [17] the test system is Rattus norvegicus. Put plainly: Cardiotoxicity in Wistar rat assessed as prolongation of QT interval at 10 mg/kg, iv by ECG. In kind it is toxicity, organism-based. The arrangement: dose 10 mg/kg, route intravenous. The note with it: in vivo.
Series [18] relates to Rattus norvegicus. Put plainly: Hypotensive activity in normotensive Wistar rat assessed as reduction in diastolic blood pressure at 5 mg/kg, iv. In kind it is functional, Artery. More on the design: scale not given: the % may be the effect or the level left.
Series [19] relates to Rattus norvegicus. Put plainly: Cardiotoxicity in Wistar rat assessed as decrease in cardiac beats per minute at 10 mg/kg, iv by ECG. In kind it is toxicity, organism-based, Heart. The arrangement: dose 10 mg/kg, route intravenous; scale not given: the % may be the effect or the level left. The note with it: in vivo.
The subject of series [20] is Mus musculus. Put plainly: Neurotoxicity in CF1 mouse at 300 mg/kg, ip after 4 hrs by rotarod test. Type of series: toxicity, organism-based. The arrangement: dose 300 mg/kg, route intraperitoneal. The note with it: in vivo.
Series [21] relates to Mus musculus. Put plainly: Anticonvulsant activity in CF1 mouse assessed as inhibition of maximal electroshock-induced seizures at 100 mg/kg, ip after 0.5 hrs. Type of series: functional, organism-based. The arrangement: dose 100 mg/kg.
Series [22] deals with Rattus norvegicus. Nature of the series: Hypotensive activity in normotensive Wistar rat assessed as reduction in systolic blood pressure at 5 mg/kg, iv. More on the design: scale not given: the % may be the effect or the level left. Type of series: functional, Artery.

Chain of Beta-1 adrenergic receptor (P18090 whole entry): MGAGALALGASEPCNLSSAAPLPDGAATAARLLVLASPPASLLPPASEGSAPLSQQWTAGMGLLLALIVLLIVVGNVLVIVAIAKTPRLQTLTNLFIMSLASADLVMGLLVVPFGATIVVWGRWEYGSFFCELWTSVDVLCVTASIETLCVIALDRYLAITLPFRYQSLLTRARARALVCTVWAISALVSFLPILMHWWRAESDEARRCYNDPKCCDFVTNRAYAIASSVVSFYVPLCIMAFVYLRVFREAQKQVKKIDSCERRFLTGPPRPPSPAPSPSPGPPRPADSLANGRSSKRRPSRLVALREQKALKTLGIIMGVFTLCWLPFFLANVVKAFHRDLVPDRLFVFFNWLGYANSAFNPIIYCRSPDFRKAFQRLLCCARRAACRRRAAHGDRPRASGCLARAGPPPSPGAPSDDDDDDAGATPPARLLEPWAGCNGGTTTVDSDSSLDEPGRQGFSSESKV

Take `C=CCNCC(O)COc1ccc2oc3ccccc3c(=O)c2c1.Cl` (centres undefined): the Activity entry is recorded as “Non-toxic” with Mus musculus [1]; “Non-toxic” in the series on Mus musculus [6]; “Non-toxic” in the series with Mus musculus [9]; “Non-toxic” with Mus musculus [10]; “Toxic” in the series with Mus musculus [11]; 11% in the series on Rattus norvegicus [15]. In addition, the Activity in the series on Rattus norvegicus [16] was determined as 10%. The outcome in the series on Mus musculus [2], in the series on Mus musculus [3], with Mus musculus [7] and with Mus musculus [14] was inactive. Besides, the results for the inhibition constant Ki in series [4] and in series [5] were 30.9 µM and 4.9 µM, respectively. The result in the series on Rattus norvegicus [8], in the series with Mus musculus [12] and in the series on Mus musculus [13] was Active.
As for `C=CCNCC(O)COc1cccc2c(=O)c3ccccc3oc12.Cl` (centres undefined), the Activity in the series with Rattus norvegicus [17] was 17%; with Mus musculus [1], “Non-toxic”; in the series with Rattus norvegicus [18], 11%; in the series with Mus musculus [6] it was “Non-toxic”; in the series with Mus musculus [11], 50%; with Rattus norvegicus [19], 24%. In addition, the Activity entry in the series with Mus musculus [20] is on record as “Non-toxic”; in the series on Rattus norvegicus [22], 9%. Also, the outcome in the series on Mus musculus [2], in the series with Mus musculus [3], in the series on Mus musculus [7], in the series with Mus musculus [12], with Mus musculus [13] and in the series with Mus musculus [14] was inactive. In addition, in the series with Mus musculus [21], the outcome was inactive. The inhibition constant Ki came out at 0.084 µM in series [4] and 7.3 µM in [5]. Further, the outcome in the series with Rattus norvegicus [8] was Active.
